In paper PMC10754118, “Lipophilic Nucleoside Triphosphate Prodrugs of Anti‐HIV Active Nucleoside Analogs as Potential Antiviral Compounds” (Advanced Science, 2023):
Like-named read-outs stand apart in the source and are kept apart here.

Assays:
[1] = Chemical hydrolysis in phosphate buffer saline (PBS, pH 7.3); format: physicochemical; settings: PBS pH 7.3, 37 °C, read-out: PBS pH 7.3 t 1/2 (converted)
Method: (§1) Part 4. Chemical Hydrolysis of TriPPPro-compounds 10 and 20.
Second prepare 1.9 mM hydrolysis […]
(§2) Then, aliquots of 50 µL human

in vitro [2] = settings: human
Method: The hydrolysis properties of TriPPPro‐compounds 10 and 20 were evaluated in phosphate buffer saline (PBS, pH 7.3), pig liver esterase (PLE) or CEM/0 cell extracts. In both cases, hydrolysis products were analyzed by means of analytical RP18‐HPLC and the hydrolysis half‐lives (Table 1 , t1/2 ) of TriPPPro‐compounds 10 and 20 were calculated after complete consumption of the starting materials.
The hydrolysis of TriPPPro‐compounds 10 and 20 was carried out with CEM/0 cell extracts as well. […]
Part 6. Enzyme-Catalyzed Hydrolysis of TriPPPro-compounds 10 and 20 in CEM Cell […]
First prepare 3.0 mM hydrolysis solutions of Tri PPPro-compounds 10 and 20 in DMSO and H2O: 21 µL stock solution (50 mM in DMSO) and 154 µL DMSO, and 175 µL Milli-Q water. Three-twelve different samples (20 µL 3.0 mM hydrolysis solutions) were prepared in 2 mL Eppendorf® vials. Then, aliquots of 50 µL human CEM cell extracts were added to these samples and the reaction was started. The samples were incubated at 37 °C in a thermomixer for different time periods. The reaction was stopped by addition of 150 µL MeOH and kept on ice for 5 min. After centrifugation at 14,000 rpm for 12 min, the supernatants were filtered (Chromafil RC-20/15 MS, 0.2 μm) and stored in liquid nitrogen. When testing, aliquots of 60 µL (injection volume) were analyzed by analytical HPLC (HPLC Method). The calculation of t1/2 was obtained using Origin again.
(§3) Part 7. Hydrolysis of TriPPPro-compounds 10 and 20 in human plasma.
µL 3.0 mM hydrolysis solutions) were prepared in 2 mL Eppendorf® vials.

pig liver esterase (PLE) = assay: Hydrolysis with pig liver esterase (PLE); format: in vitro ADME; settings: pig liver esterase (PLE) in PBS, PLE in PBS pH 7.3, 37 °C, read-out: PLE t 1/2 (converted)
From the text: Next, TriPPPro‐compounds 10 and 20 were exposed to PLE in PBS (pH 7.3) and the half‐lives of TriPPPro‐compounds 10 and 20 are listed in Table 1. […] In contrast, the cleavage of the AB (C4) masking group in TriPPPro‐compounds 10by–hy and 10bz–hz was triggered by ester hydrolysis and yielded the corresponding γ‐alkylated nucleoside triphosphate derivatives 20 (Figure 3B,D) and 21 (Figures S17 and S18, Supporting Information), respectively. […] Moreover, a very small amount of NDPs was observed, probably due to a reaction involving a nucleophilic reaction at the γ‐phosphate or γ‐phosphonate moiety (pathways d and f, Scheme 5). […]
as §1
Second prepare 1.9 mM hydrolysis
Part 5. Hydrolysis of TriPPPro-compounds 10 and 20 with PLE .
Second, 125 µL DMSO and 833 µL
62.5 µL of PLE solution in PBS (100
mixture was stored in the freezer (- 30 °C).
by analytical HPLC (HPLC Method).
similar to that for the chemical hydrolysis studies. […]
as §2

in vitro [3] = settings: human, plasma
Method: First prepare 50 mM solutions of TriPPPro-compounds 10 and 20 in DMSO. […]
First prepare 3.0 mM hydrolysis solutions of Tri PPPro-compounds 10 and 20 in DMSO and H2O: 21 µL stock solution (50 mM in DMSO) and 154 µL DMSO, and 175 µL Milli-Q water. Three-twelve different samples (20 […]
The calculation of t1/2 was obtained using Origin again.
as §3
µL 3.0 mM hydrolysis solutions) were prepared in 2 mL Eppendorf® vials. Then, aliquots of 50 µL human Plasma (Heparin or Citrate) were added to these samples and the reaction was started. The samples were […]
incubated at 37 °C in a thermomixer for different time periods. The reaction was stopped by addition of 150 µL MeOH and kept on ice for 5 min. After centrifugation at 14,000 rpm for 22 min, the supernatants were filtered (Chromafil RC-20/15 MS, 0.2 μm) and stored in liquid nitrogen. When testing, aliquots of 25 0r 30 µL (injection volume) were analyzed by analytical HPLC (HPLC Method). The calculation of t1/2 was obtained using Origin […]
Part 8. Preparation of cell extracts and human plasma. […]

HIV‐1 [HE] = assay: Anti-HIV activity, HIV-1 in wild-type CEM/0 cells; format: cell-based; settings: Human immunodeficiency virus 1, CCRF-CEM, read-out: Antiviral activity CEM/0 HIV‐1 [HE] EC50
HIV‐2 [ROD] = assay: Anti-HIV activity, HIV-2 in wild-type CEM/0 cells; format: cell-based; settings: Human immunodeficiency virus 2, CCRF-CEM, read-out: Antiviral activity CEM/0 HIV‐2 [ROD] EC50
Method: (§4) Part 9. Anti-HIV activity assay.
(§5) The produce was used as previously reported. 5 Inhibition of HIV-1(IIIB)- and HIV-2(ROD)-induced cytopathogenicity in wild-type CEM/0 and thymidine kinase-deficient CEM/TK– cell cultures was measured in […]
(§6) containing appropriate dilutions of the test compounds. After 4−5 days of incubation at 37 °C in a CO2-controlled humidified atmosphere, CEM giant (syncytium) cell formation was examined microscopically. The […]
(§7) giant cell formation by 50%.
(§8) Part 10. Primer-extension assays. […]

HIV‐2 [ROD)] = assay: Anti-HIV activity, HIV-2 in thymidine kinase-deficient CEM/TK^− cells; format: cell-based
Method: as §4, §5, §6, §7, §8

in vitro [4] = settings: human, CEM/0 cells (wild-type CD4+ T-cells)
Method: All TriPPPro‐compounds 10 and 20, as well as their parent nucleosides and the corresponding NTPs, were evaluated for their antiviral activity (expressed as EC50 values) against HIV‐1 (wild‐type CEM/0 cells) and HIV‐2 (wild‐type CEM/0 cells and thymidine kinase‐deficient (CEM/TK^−) cells) with concomitant determination of cytotoxicity in the same cell line (Table 3 ).

[5] = t 1/2 in human plasma (over heparin and citrate plasma)
[6] = wild-type CEM/0 cells, mean ±SD n = 2–3
[7] = Human immunodeficiency virus 2, CEM-TK(-), thymidine kinase-deficient CEM/TK^− cells, mean ±SD n = 2–3; read-out: Antiviral activity CEM/TK^− HIV‐2 [ROD)] EC50

Structure (SMILES) | half-life at 1.9 mM [1] [days] | half-life at 0.86 mM (in vitro [2]) [h] | half-life at 0.45 mM (pig liver esterase (PLE)) [h] | half-life at 0.86 mM (in vitro [3]; Plasma (Citrate) t 1/2) [h] | half-life at 0.86 mM (in vitro [3]; Plasma (Heparin) t 1/2) [h] | half-life at 0.86 mM (in vitro [3]; [5]) [h] | EC50 (HIV‐1 [HE]; [6]) [nM] | EC50 (HIV‐2 [ROD]; [6]) [nM] | EC50 (HIV‐2 [ROD)]; [7]) [nM] | CC50 (in vitro [4]) [nM] | EC50 (HIV‐1 [HE]) [nM] | EC50 (HIV‐2 [ROD]) [nM] | EC50 (HIV‐2 [ROD)]; Human immunodeficiency virus 2, CEM-TK(-), read-out: Antiviral activity CEM/TK^− HIV‐2 [ROD)] EC50) [nM]
CCCCCCCCCCCCCCCCCCOP(=O)(OCCCC)OP(=O)(O)OP(=O)(O)OC[C@H]1O[C@@H](n2cc(C)c(=O)[nH]c2=O)C[C@@H]1N=[N+]=[N-] (stereo partly drawn) [10bv, γ‐(alkyl‐C4;alkyl‐C18)‐AZTTP] | > 83.3 | > 30 | > 150 | > 20 | > 20 | > 8 | 41 ± 19 | 26 ± 7 | 290 ± 150 | 64900 | – | – | –
CCCCCCCCCCCCCCCCCCOP(=O)(O)OP(=O)(O)OP(=O)(O)OC[C@@H]1C=C[C@H](n2cnc3c(NC4CC4)nc(N)nc32)C1 [20h, γ‐C18‐ABCTP] | > 83.3 | > 10 | > 150 | > 20 | 4.8 | – | 260 ± 130 | 420 ± 110 | 160 ± 160 | > 100000 | – | – | –
CCCCCCCCCCCCCCCCCCOP(=O)(OCc1ccc(OC(=O)CCCC)cc1)OP(=O)(O)OP(=O)(O)OC[C@H]1O[C@@H](n2cc(Cl)c(=O)[nH]c2=O)C[C@@H]1F (stereo partly drawn) [10dy] | 18.5 | 2.9 | 0.19 | – | – | – | 7320 ± 2280 | 1950 ± 860 | 2530 ± 1380 | 52100 | – | – | –
CCCCCCCCCCCCCCCCCCOP(=O)(O)OP(=O)(O)OP(=O)(O)OC[C@H]1O[C@@H](n2ccc(=O)[nH]c2=O)C[C@@H]1F [20e, γ‐C18‐FddUTP] | > 83.3 | > 20 | > 150 | – | – | – | 92 ± 82 | 390 ± 300 | 3560 ± 1880 | 63700 ± 13600 | – | – | –
CCCCCCCCCCCCCCCCCCOP(=O)(OCCCC)OP(=O)(O)OP(=O)(O)OC[C@H]1O[C@@H](n2cc(Cl)c(=O)[nH]c2=O)C[C@@H]1F (stereo partly drawn) [10dv] | > 83.3 | > 20 | > 150 | – | – | – | 2280 ± 680 | 4810 ± 4610 | > 20000 | 50100 ± 10200 | – | – | –
CCCCCCCCCCCCCCCCCCOP(=O)(O)OP(=O)(O)OP(=O)(O)OCC1OC(n2cc(C)c(=O)[nH]c2=O)CC1N=[N+]=[N-] (stereo not drawn) [20b, γ‐(alkyl‐C18)‐AZTTP] | > 83.3 | > 30 | > 150 | > 20 | 3.7 | – | 28 ± 31 | 30 ± 1 | 4100 ± 2600 | > 100000 | – | – | –
CCCCCCCCCCCCCCCCCCP(=O)(OCc1ccc(OC(=O)CCCC)cc1)OP(=O)(O)OP(=O)(O)OC[C@@H]1C=C[C@H](n2cnc3c(NC4CC4)nc(N)nc32)C1 (stereo partly drawn) [10hz, γ‐(AB‐C4)‐γ‐C‐(alkyl‐C18)‐ABCTP] | 22.2 | 7.7 | 1.11 | 5.6 | 4.1 | 4.1 to 5.6 | 200 | 170 ± 64 | 19 ± 1 | 38200 ± 1300 | – | – | –
CCCCCCCCCCCCCCCCCCOP(=O)(O)OP(=O)(O)OP(=O)(O)OC[C@@H]1O[C@H](n2cc(F)c(N)nc2=O)CS1 [20c, γ‐C18‐FTCTP] | > 83.3 | > 30 | > 150 | – | – | – | 350 ± 250 | 220 ± 20 | 51 ± 69 | 63400 ± 13700 | – | – | –
CCCCCCCCCCCCCCCCCCOP(=O)(O)OP(=O)(O)OP(=O)(O)OC[C@H]1O[C@@H](n2cc(C)c(=O)[nH]c2=O)C[C@@H]1F [20f, γ‐C18‐FLTTP] | > 83.3 | > 20 | > 150 | – | – | – | 19 ± 19 | 10 ± 1 | 1270 ± 540 | > 100000 | – | – | –
CCCCCCCCCCCCCCCCCCOP(=O)(OCc1ccc(OC(=O)CCCC)cc1)OP(=O)(O)OP(=O)(O)OC[C@@H]1C=C[C@H](n2cnc3c(NC4CC4)nc(N)nc32)C1 (stereo partly drawn) [10hy] | 1.92 | 1.3 | 0.97 | – | – | – | 960 ± 490 | 290 ± 160 | 210 ± 110 | > 100000 | – | – | –
CCCCCCCCCCCCCCCCCCP(=O)(OCCCC)OP(=O)(O)OP(=O)(O)OC[C@H]1O[C@@H](n2cc(C)c(=O)[nH]c2=O)C[C@@H]1N=[N+]=[N-] (stereo partly drawn) [10bx] | > 62.5 | > 20 | > 150 | – | – | – | – | – | – | > 100000 | 120 ± 88 | 31 ± 5 | 1190 ± 790
